Columns and labels:
[1] = tested on: smokers; conditions: bupropion alone; cited from earlier work
[2] = tested on: cigarette smoking adults; assay: Open-label switching study: side effects (AE/SAE reporting) and adherence; type: in vivo, human; conditions: zonisamide added to bupropion
Experimental: There was a data collection period of at least five days to obtain baseline data on use of combustible cigarettes. Participants enrolled in the study received a G6 e-cigarette at V2 for ad libitum use.
At each session, expired air CO was measured along with blood pressure, heart rate, respiratory rate and body weight. Participants also completed questionnaires rating subjective effects of smoking and e-cigarette use. Participants were given enough cartomizers and study drugs to last until their next scheduled session, along with an extra 4 days' worth to allow for flexibility in case sessions need to be rescheduled. E-cigarette usage and study drug compliance were tracked not only by self-reported number of occasions used, but also by cartomizer counts (used or unused) and returned study drugs.
AE/SAE Reporting AEs/SAEs were assessed using questionnaires and interviews at the indicated time points and spontaneous reporting from the time of ICF signature until the EOS for the participant.

[3] = tested on: smokers; conditions: cited from earlier work

## CC(NC(C)(C)C)C(=O)c1cccc(Cl)c1 (centres unmarked) [bupropion]
[1]
  typical abstinence rate: ~25%

## NS(=O)(=O)Cc1noc2ccccc12 [zonisamide]
[2]
  effect on adverse events associated with bupropion, such as insomnia: appeared to reduce incidences of adverse events associated with bupropion
[3]; during smoking abstinence
  effect on anger, restlessness and impatience: decrease anger, restlessness and impatience
[3]; in vivo
  effect on ad libitum smoking: reduce ad libitum smoking
  effect on craving for cigarettes: relieve craving for cigarettes

From US20250073186A1, “COMBINATION TREATMENT METHODS” (Rose Research Center, LLC, priority 2021, published 2025)
